Tested on: Spodoptera littoralis
Assay: Antifeedant activity against Spodoptera littoralis using glass-fibre disks at 100 ppm measured after 18 hr by binary choice feeding bioassay relative to control
Format: functional

Compound: C[C@@H]1C[C@@H](O)[C@@]23CO[C@]2(CO)CCC[C@@H]3[C@@]12C[C@@H](c1ccoc1)OC2=O [MONTANIN D]
- AFI: 82.1%

Compound: C[C@@H]1C[C@@H](O)[C@@]23COC(=O)C2=CCC[C@@H]3[C@@]12C[C@@H](c1ccoc1)OC2=O [6BETA-HYDROXYTEUSCORDIN]
- AFI: 73.1%

Compound: C[C@@H]1C[C@@H](O)[C@@]23COC(=O)C2=C[C@@H](O)C[C@@H]3[C@@]12C[C@@H](c1ccoc1)OC2=O [TEUGIN]
- AFI: 11.1%

Compound: C[C@@H]1C[C@@H](O)[C@@]23COC(=O)C2C[C@@H](O)C[C@@H]3[C@@]12C[C@@H](c1ccoc1)OC2=O (some centres undefined) [DIHYDROTEUGIN]
- AFI: -1.2%

Compound: C[C@@H]1C[C@@H]2OC(=O)C3=C2[C@H](CCC3)[C@@]12C[C@@H](c1ccoc1)OC2=O [TEUCVIN]
- AFI: 52.2%

Compound: C[C@@H]1C[C@@H](O)[C@@]2(CO)C(CO)=C[C@@H](O)C[C@@H]2[C@@]12C[C@@H](c1ccoc1)OC2=O [19-DEACETYLTEUSCORODOL]
- AFI: -54.5%

Compound: C[C@@H]1C[C@@H]2OC(=O)C3=C2[C@H](CC[C@@H]3O)[C@@]12C[C@@H](c1ccoc1)OC2=O [ISOTEUFLIFIN]
- AFI: 11%

Compound: C[C@@H]1CC(=O)[C@@]23COC(=O)C2=CCC[C@@H]3[C@@]12C[C@@H](c1ccoc1)OC2=O [TEUSCORDINON]
- AFI: 55.7%

Compound: CC(=O)OC[C@@]12CCC[C@@H]3[C@@]4(C[C@@H](c5ccoc5)OC4=O)[C@H](C)C[C@@H](OC(C)=O)[C@]31CO2 [DIACETYLMONTANIN D]
- AFI: 34.6%

From ChEMBL document CHEMBL3046185, “Antifeedant activity of neo-clerodane diterpenoids from Teucrium arduini” (2002)
